Test results taken from BindingDB's records for patent USRE47493 (Boehringer Ingelheim International, 2019).

Biological target: T1, Neutrophil elastase (Homo sapiens, UniProt P08246)
T1 sequence (P08246 whole entry): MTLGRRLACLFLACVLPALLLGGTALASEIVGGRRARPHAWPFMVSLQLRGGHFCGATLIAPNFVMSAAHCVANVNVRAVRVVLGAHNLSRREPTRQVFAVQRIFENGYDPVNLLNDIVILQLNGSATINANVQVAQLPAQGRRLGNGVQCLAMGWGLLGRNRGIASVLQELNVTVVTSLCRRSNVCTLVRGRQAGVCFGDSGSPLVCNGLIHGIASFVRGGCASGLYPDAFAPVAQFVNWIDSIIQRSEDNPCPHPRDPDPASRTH
Assay: Enzyme Inhibition Assay
Protocol: All other materials were of the highest grade commercially available.The following buffers were used: Compound buffer: 100 mM Tris, 500 mM NaCl, adjusted to pH 7.5; Assay buffer: 100 mM Tris, 500 mM NaCl, adjusted to pH 7.5, containing 0.01% BSA.Assay conditions: Test compounds were prediluted in DMSO and subsequently in compound buffer (5% DMSO final). […] After inactivation of the enzyme, fluorescence intensities were measured at 380 nm excitation and 460 nm emission wavelengths.

N#Cc1ccc(C2C3=C(CCCC3=O)N(c3cccc(C(F)(F)F)c3)C(=O)N2C(=O)NC2CCC[C@@H]2O)cc1 (some centres not stated) [USRE47493, Example 70.12]
IC50: < 1 nM

N#Cc1ccc(C2C3=C(CCCC3=O)N(c3cccc(C(F)(F)F)c3)C(=O)N2C(=O)NC2CCCC[C@@H]2O)cc1 (some centres not stated) [USRE47493, Example 70.17]
IC50: 1.1 nM
